Experimental data from ChEMBL document CHEMBL1131968, “P'-extended alpha-ketoamide inhibitors of proteasome” (Bioorg Med Chem Lett, 1999).

target: Proteasome; assay: Inhibitory activity against proteasome; type: subcellular

First: N/C(=N\CCC[C@H](NC(=O)C(CCCCCCCCN1C(=O)c2ccccc2C1=O)C1CCCC1)C(=O)N[C@@H](Cc1ccccc1)C(=O)C(=O)NCCNS(=O)(=O)c1ccccc1)N[N+](=O)[O-] (stereo partly drawn)
Second: NCCCC[C@H](NC(=O)C(CCCCCCCCN1C(=O)c2ccccc2C1=O)C1CCCC1)C(=O)N[C@@H](Cc1ccccc1)C(=O)C(=O)NCCNS(=O)(=O)c1ccccc1 (stereo partly drawn)
The Ki of the first is 20-fold lower: 1.1 nM for the first, 22 nM for the second.

Going from `NCCNC(=O)C(=O)[C@H](Cc1ccccc1)NC(=O)[C@H](CCC/N=C(\N)N[N+](=O)[O-])NC(=O)C(CCCCCCCCN1C(=O)c2ccccc2C1=O)C1CCCC1` (stereo partly drawn) to `CCNC(=O)C(=O)[C@H](Cc1ccccc1)NC(=O)[C@H](CCC/N=C(\N)N[N+](=O)[O-])NC(=O)C(CCCCCCCCN1C(=O)c2ccccc2C1=O)C1CCCC1` (stereo partly drawn), the Ki falls from 67 nM to 12 nM (5.6-fold). The second binds more tightly here.

Going from `CS(=O)(=O)NCCCC[C@H](NC(=O)C(CCCCCCCCN1C(=O)c2ccccc2C1=O)C1CCCC1)C(=O)N[C@@H](Cc1ccccc1)C(=O)C(=O)NCCNS(=O)(=O)c1ccccc1` (stereo partly drawn) to `O=C(NCCNS(=O)(=O)c1ccccc1)C(=O)[C@H](Cc1ccccc1)NC(=O)[C@H](CCCCNC(=O)c1cnccn1)NC(=O)C(CCCCCCCCN1C(=O)c2ccccc2C1=O)C1CCCC1` (stereo partly drawn), the Ki rises from 41 nM to 80 nM (2-fold).

For `CC(C)(C)OC(=O)NCCNC(=O)C(=O)[C@H](Cc1ccccc1)NC(=O)[C@H](CCC/N=C(\N)N[N+](=O)[O-])NC(=O)C(CCCCCCCCN1C(=O)c2ccccc2C1=O)C1CCCC1` (stereo partly drawn), the Ki was 2.2 nM.

test system: Proteasome; assay: Inhibitory activity against proteasome at 10 uM concentration; type: subcellular

Compared with `CC(C)(C)OC(=O)N[C@@H](Cc1ccccc1)C(=O)C(=O)NCCNS(=O)(=O)c1ccccc1`, `N[C@@H](Cc1ccccc1)C(=O)C(=O)NCCNS(=O)(=O)c1ccccc1` is lower in inhibition: 14% for the first, 12% for the second.

test system: Proteasome; assay: Inhibitory activity against proteasome at 1 uM concentration; type: subcellular

Compound `N/C(=N/CCCC(NC(=O)OCc1ccccc1)C(=O)N[C@@H](Cc1ccccc1)C(=O)C(=O)NCCNS(=O)(=O)c1ccccc1)N[N+](=O)[O-]` (stereo partly drawn) has an inhibition of 34%.

test system: Proteasome; assay: Inhibitory activity against proteasome at 100 nM concentration; type: subcellular

First: CC(C)(C)OC(=O)NCCCC[C@H](NC(=O)C(CCCCCCCCN1C(=O)c2ccccc2C1=O)C1CCCC1)C(=O)N[C@@H](Cc1ccccc1)C(=O)C(=O)NCCNS(=O)(=O)c1ccccc1 (stereo partly drawn)
Second: N=C(N)NCCC[C@H](NC(=O)C(CCCCCCCCN1C(=O)c2ccccc2C1=O)C1CCCC1)C(=O)N[C@@H](Cc1ccccc1)C(=O)C(=O)NCCNS(=O)(=O)c1ccccc1 (stereo partly drawn)
The inhibition of the first is higher: 48% for the first, 31% for the second.

`CC(C)(C)OC(=O)/N=C(\NCCC[C@H](NC(=O)C(CCCCCCCCN1C(=O)c2ccccc2C1=O)C1CCCC1)C(=O)N[C@@H](Cc1ccccc1)C(=O)C(=O)NCCNS(=O)(=O)c1ccccc1)NC(=O)OC(C)(C)C` (stereo partly drawn) was tested, and the inhibition was 34%.
